Measured values as given in patent US20100251435A1, “METHOD FOR GROWING SUGARCANE” (priority 2007, published 2010).

How the values were obtained:
Assay type in all cases: in vivo
[1] = test system: sugar cane Variety RB 86-7515; assay: Greenhouse pot test, effect of formulated clothianidin on vigour; conditions: carretels; result in words
Protocol: Greenhouse test with sugarcane buds growing in pots were conducted to study the effect of clothianidin equivalent to an application rate of 200 g ai. ha^−1 on “vigour”, evaluating tillers, plant height, leaf width and culm diameter. This trial was conducted on sugar cane Variety RB 86-7515.
1) carretel with one bud treated with clothianidin (200 g ai. ha^−1) 2) carretel with one bud treated with clothianidin (200 g ai. ha^−1)+15% v/v of polymer 3) stalk with 3 buds untreated 4) carretel with one bud untreated+15% v/v of polymer 5) carretel with one bud untreated 6) stalk with 3 buds treated with clothianidin (200 g ai. ha^−1).
Twenty 1 L pots were filled with 16 L of clay soil, 1.6 L of sand and 8 g of nitrogen, 28 g of phosphorus (P2O5) and 16 g of potassium (K2O). Six carretels of 4 cm length with one bud were planted in each pot (treatments 1, 2, 4 and 5). Two stalks with three buds were planted in each control pot (treatments 3 and 6) to simulate conventional planting. A layer of 3 cm of soil was used to cover the carretels. The carretels of treatments 1 and 2 were treated with 200 g ai.ha^−1 of clothianidin, by dipping the carretels in a slurry for 3 min. The stalks were treated simulating a furrow application at 100 L.ha^−1 of slurry. The pots were maintained with adequate moisture during the test. […]

[2] = test system: sugar cane Variety RB 86-7515; assay: Greenhouse pot test, effect of formulated fipronil on vigour; conditions: result in words
Protocol: Greenhouse test with sugarcane buds growing in pots were conducted to study the effect of fipronil equivalent to an application rate of 200 g. ha^−1 on “vigour”, evaluating tillers, plant height, leaf width and culm diameter on sugar cane Variety RB 86-7515.
Twenty 1 L pots were filled with 16 L of clay soil, 1.6 L of sand and 8 g of nitrogen, 28 g of phosphorus (P2O5) and 16 g of potassium (K2O). Six carretels of 4 cm length with one bud were planted in each pot (treatments 1, 2, 4 and 5). Two stalks with three buds were planted in each control pot (treatments 3 and 6) to simulate conventional planting. A layer of 3 cm of soil was used to cover the carretels. The carretels of treatments 1 and 2 were treated with 200 g ai.ha^−1 of fipronil, by dipping the carretels in the slurry for 3 min, based on the uptake capacity of carretels. The stalks were treated simulating a furrow application at 100 L.ha^−1 of slurry. Experimental design adopted was randomized complete block with four replications. The pots were maintained with adequate moisture during the test. Evaluations of: plant height, leaf width, culm diameter and number of tillers were done at 20, 30 and 42 days after planting.

[3] = test system: sugar cane Variety RB 86 7515; assay: Greenhouse pot test, effect of formulated imidacloprid on vigour; conditions: result in words
Text: 1) carretel with one bud treated with Imidacloprid (1200 g. ha^−1) 2) carretel with one bud treated with Imidacloprid (1200 g. ha^−1)+15% v/v of polymer 3) stalk with 3 buds untreated 4) carretel with one bud untreated 5) carretel with one bud untreated+15% v/v of polymer 6) stalk with 3 buds treated with Imidacloprid (1200 g. ha^−1).
Twenty 1 L pots were filled with 16 L of clay soil, 1.6 L of sand and 8 g of nitrogen, 28 g of phosphorus (P2O5) and 16 g of potassium (K2O). Six carretels of 4 cm length with one bud were planted in each pot (treatments 1, 2, 4 and 5). Two stalks with three buds were planted in each control pot (treatments 3 and 6) to simulate conventional planting. A layer of 3 cm of soil was used to cover the carretels. The carretels of treatments 1 and 2 were treated with 1200 g ai.ha^−1 of imidacloprid, by dipping the carretels in the slurry for 3 min, based on the uptake capacity of carretels. The stalks were treated simulating a furrow application at 100 L.ha^−1 of slurry. Experimental design adopted was randomized complete block with four replications. The pots were maintained with adequate moisture during the test. Evaluations of: plant height, leaf width, culm diameter and number of tillers were done at 20, 30 and 42 days after planting.

[4] = test system: sugar cane Variety RB 86-7515; assay: Greenhouse pot test, effect of formulated thiamethoxam on vigour; conditions: result in words
Protocol: This trial was conducted on Variety RB 86-7515.

[5] = test system: sugar cane Variety RB 86-7515; assay: Greenhouse pot test, effect of formulated abamectin on vigour
Protocol: Greenhouse test with sugarcane buds growing in pots were conducted to study the effect of formulated abamectin regarding “vigour”, tillers, plant height, leaf width and culm diameter on sugar cane Variety RB 86-7515.
1) carretel with one bud treated with abamectin 2) carretel with one bud treated with abamectin+15% v/v of polymer 3) stalk with 3 buds untreated 4) carretel with one bud untreated 5) carretel with one bud untreated+15% v/v of polymer 6) stalk with 3 buds treated with abamectin.
Twenty 1 L pots were filled with 16 L of clay soil, 1.6 L of sand and 8 g of nitrogen, 28 g of phosphorus (P2O5) and 16 g of potassium (K2O). Six carretels of 4 cm length with only one bud were planted in each pot (treatments 1, 2, 4 and 5). Two stalks with three buds were planted in each control pot (treatments 3 and 6) to simulate conventional planting. A layer of 3 cm of soil was used to cover the carretels. The carretels of treatments 1, 2 were treated with 200 ml/ha of abamectin, by dipping the carretels in the slurry for 3 min, based on the uptake capacity of carretels. The stalks were treated simulating a furrow application at 100 L.ha^−1 of slurry. Experimental design adopted was randomized complete block with four replications. The pots were maintained with adequate moisture during the test. Evaluations of: plant height, leaf width, culm diameter and number of tillers were done at 20, 30 and 42 days after planting.

## CN/C(=N\[N+](=O)[O-])NCc1cnc(Cl)s1 [Clothianidin, clothianidin]
[1]
  number of tillers in comparison with the corresponding control experiment (untreated, one-bud): increased
  plant height in comparison with the corresponding control experiment (untreated, one-bud): slight reduction

## N#Cc1nn(-c2c(Cl)cc(C(F)(F)F)cc2Cl)c(N)c1[S+]([O-])C(F)(F)F (stereo not drawn) [Fipronil, fipronil]
[2]
  height of the resultant plants in comparison with the control: decreased
  number of tillers in comparison with the control: increased

## O=[N+]([O-])NC1=NCCN1Cc1ccc(Cl)nc1 [Imidacloprid, imidacloprid]
[3]
  number of tillers in comparison with the control: increase
  size of the effect compared with the other active ingredients: less pronounced than with the other active ingredients

## CN1COCN(Cc2cnc(Cl)s2)/C1=N\[N+](=O)[O-] [Thiamethoxam, thiamethoxam]
[4]; carretels
  number of tillers in comparison with the corresponding controls: increased
  plant height in comparison with the corresponding controls: reduced
[4]; practical assessment, not apparent from the listed parameters
  overall "quality" compared with the other treatments: increase in “quality” greater than the other treatments

## abamectin
[5]; Carretel with one bud, 100 g ai/ha, dipped in slurry 3 min, 42 days after planting
  Tillers: 14 number
[5]; result in words
  number of tillers in comparison with the control: increase
  plant height in comparison with the control: decrease
